Experiments:
[1] = biological target: T1, Platelet-derived growth factor receptor beta (Homo sapiens, UniProt P09619); experiment: In vitro inhibition of Platelet derived growth factor receptor beta autophosphorylation in MG-63 cells with 45% human plasma; type: cell-based
[2] = biological target: T1, Platelet-derived growth factor receptor beta; experiment: In vitro inhibition of Platelet derived growth factor receptor beta autophosphorylation in MG-63 cells without plasma; type: cell-based
[3] = Inhibition of PDGFR-beta/Flt-3 chimeric receptor autophosphorylation in CHO cells; type: cell-based
[4] = Inhibition of PDGFR-beta/c-Kit chimeric receptor autophosphorylation in CHO cells; type: cell-based
[5] = biological target: T1, Platelet-derived growth factor receptor beta; experiment: Inhibition of Platelet derived growth factor receptor beta autophosphorylation in CHO cells; type: cell-based
[6] = Area under curve was determined in rat by peroral dose at 30 mg/kg; type: ADME, organism-based; set-up: dose 30 mg/kg, route oral; settings: in vivo, po
[7] = Plasma half life was determined in dog by iv/po dose at 8.09 mg/kg; type: ADME, organism-based, Canis lupus familiaris; set-up: dose 8.09 mg/kg
[8] = Plasma half life was determined in monkey by iv/po dose at 10 mg/kg; type: ADME, organism-based; set-up: dose 10 mg/kg; settings: cercopithecidae
[9] = Maximum concentration was determined in rat by iv/po dose at 30 mg/kg; type: ADME, organism-based; set-up: dose 30 mg/kg; settings: in vivo
[10] = Maximum concentration was determined in dog by iv/po dose at 8.09 mg/kg; type: ADME, organism-based, Canis lupus familiaris; set-up: dose 8.09 mg/kg; settings: in vivo
[11] = Maximum concentration was determined in monkey by iv/po dose at 10 mg/kg; type: ADME, organism-based; set-up: dose 10 mg/kg; settings: cercopithecidae, in vivo
[12] = Bioavailability in rat (dose 30 mg/kg i.v./p.o.); type: ADME, organism-based; settings: in vivo, po
[13] = Percent bioavailability was determined in dog by iv/po dose at 8.09 mg/kg; type: ADME, organism-based, Canis lupus familiaris; settings: in vivo
[14] = Plasma half life was determined in rat by iv/po dose at 30 mg/kg; type: ADME, organism-based; set-up: dose 30 mg/kg

T1 sequence (P09619 whole entry): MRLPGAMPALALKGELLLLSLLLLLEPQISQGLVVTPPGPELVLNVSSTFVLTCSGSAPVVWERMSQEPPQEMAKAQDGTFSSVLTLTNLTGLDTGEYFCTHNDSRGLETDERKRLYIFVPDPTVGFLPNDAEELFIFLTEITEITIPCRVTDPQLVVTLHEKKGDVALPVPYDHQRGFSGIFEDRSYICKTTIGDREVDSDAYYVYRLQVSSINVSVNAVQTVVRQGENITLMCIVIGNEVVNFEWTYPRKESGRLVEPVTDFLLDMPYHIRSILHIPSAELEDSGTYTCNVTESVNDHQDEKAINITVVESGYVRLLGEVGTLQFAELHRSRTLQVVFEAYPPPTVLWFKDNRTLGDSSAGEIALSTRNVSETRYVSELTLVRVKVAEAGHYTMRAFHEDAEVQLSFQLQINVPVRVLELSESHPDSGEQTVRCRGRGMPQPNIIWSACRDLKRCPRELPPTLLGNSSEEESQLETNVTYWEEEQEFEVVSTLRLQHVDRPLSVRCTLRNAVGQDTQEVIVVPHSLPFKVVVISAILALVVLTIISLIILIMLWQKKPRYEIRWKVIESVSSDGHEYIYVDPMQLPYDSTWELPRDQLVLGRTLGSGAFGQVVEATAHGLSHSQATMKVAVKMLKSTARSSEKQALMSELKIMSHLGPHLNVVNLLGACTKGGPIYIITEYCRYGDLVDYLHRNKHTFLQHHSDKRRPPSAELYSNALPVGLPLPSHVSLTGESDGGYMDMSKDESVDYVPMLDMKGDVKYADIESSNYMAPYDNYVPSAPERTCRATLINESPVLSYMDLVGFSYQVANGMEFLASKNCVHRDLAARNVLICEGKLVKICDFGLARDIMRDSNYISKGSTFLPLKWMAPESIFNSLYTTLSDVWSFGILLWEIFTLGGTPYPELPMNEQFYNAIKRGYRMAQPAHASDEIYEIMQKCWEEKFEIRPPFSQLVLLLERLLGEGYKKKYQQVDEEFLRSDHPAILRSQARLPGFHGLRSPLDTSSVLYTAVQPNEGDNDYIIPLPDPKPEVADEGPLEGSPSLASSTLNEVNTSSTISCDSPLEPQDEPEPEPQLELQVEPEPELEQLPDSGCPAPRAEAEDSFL

IC50 [1] [nM] | IC50 [2] [nM] | SMILES | other results
740 | 100 | COc1cc2c(N3CCN(/C(S)=N\c4ccsc4)CC3)ncnc2cc1OCCN1CCCCC1 | –
5040 | 9530 | COc1cc2c(N3CCN(C(=S)NCc4ccc(-c5ccncc5)cc4)CC3)ncnc2cc1OCCN1CCCCC1 | –
1400 | 1130 | COc1cc2c(N3CCN(/C(S)=N\Cc4ccc(C(F)(F)F)nc4Cl)CC3)ncnc2cc1OCCN1CCCCC1 | IC50 [3]: 6770 nM; IC50 [4]: 790 nM; IC50 [5]: 100 nM
160 | 5 | COc1cc2c(N3CCN(/C(S)=N\Cc4ccc5c(c4)OCO5)CC3)ncnc2cc1OCCN1CCCC1 | –
510 | 890 | COc1cc2c(N3CCN(C(=S)Nc4ccc(Cl)nc4)CC3)ncnc2cc1OCCN1CCCCC1 | IC50 [3]: 19800 nM; IC50 [4]: 500 nM; IC50 [5]: 360 nM
1060 | 4100 | COc1cc2c(N3CCN(/C(S)=N\c4ccc(C(F)(F)F)nc4)CC3)ncnc2cc1OCCN1CCCCC1 | –
90 | 80 | COc1cc2c(N3CCN(/C(S)=N\Cc4ccc(C)o4)CC3)ncnc2cc1OCCCN1CCCCC1 | IC50 [3]: > 30000 nM; IC50 [4]: 50 nM; IC50 [5]: 80 nM
60 | 220 | COc1cc2c(N3CCN(C(=S)Nc4ccncc4)CC3)ncnc2cc1OCCCN1CCCCC1 | IC50 [3]: 24200 nM; IC50 [4]: 1850 nM; IC50 [5]: 580 nM
970 | 920 | COc1cc2c(N3CCN(/C(=N\Cc4ccc(C(C)C)cc4)NC#N)CC3)ncnc2cc1OCCCN1CCCCC1 | –
120 | 20 | COc1cc2c(N3CCN(C(=S)NCc4ccc5c(c4)OCO5)CC3)ncnc2cc1OCCN1CCCCC1 | AUC [6]: 69 µg/h/mL; IC50 [3]: 2910 nM; IC50 [4]: 60 nM; half-life [7]: 15.7 h; half-life [8]: 9.25 h; Cmax [9]: 146 ng/mL; Cmax [10]: 456 ng/mL; Cmax [11]: 92.5 ng/mL; bioavailability [12]: 39.1%; bioavailability [13]: 102%; half-life [14]: 26.7 h; IC50 [5]: 40 nM
17100 | 31700 | COc1cc2c(N3CCN(C(=NC#N)Nc4ccncc4)CC3)ncnc2cc1OCCCN1CCCCC1 | –
90 | 140 | COc1cc2c(N3CCN(/C(S)=N\Cc4ccc(C)nc4)CC3)ncnc2cc1OCCCN1CCCCC1 | IC50 [3]: > 30000 nM; IC50 [4]: 240 nM; IC50 [5]: 140 nM
90 | 1030 | COc1cc2c(N3CCN(C(=S)NCc4ccc(C(F)(F)F)nc4)CC3)ncnc2cc1OCCN1CCCCC1 | IC50 [3]: > 30000 nM; IC50 [4]: 240 nM; IC50 [5]: 150 nM
1330 | 420 | COc1cc2c(N3CCN(/C(S)=N\c4ccc(Cl)nn4)CC3)ncnc2cc1OCCN1CCCCC1 | –
4980 | 3760 | COc1cc2c(N3CCN(C(=S)Nc4cccnc4)CC3)ncnc2cc1OCCN1CCCCC1 | –
5190 | 14800 | COc1cc2c(N3CCN(C(=S)NCc4ccc(-c5cccnc5)cc4)CC3)ncnc2cc1OCCN1CCCCC1 | –
350 | 1150 | COc1cc2c(N3CCN(C(=S)NCc4ccc(C)nc4Cl)CC3)ncnc2cc1OCCN1CCCCC1 | –
320 | 50 | COc1cc2c(N3CCN(/C(S)=N\Cc4cccnc4)CC3)ncnc2cc1OCCCN1CCCCC1 | –
770 | 1790 | COc1cc2c(N3CCN(/C(S)=N\Cc4ccnc(Cl)c4)CC3)ncnc2cc1OCCN1CCCCC1 | –

IC50 [1] [nM] | IC50 [2] [nM] | SMILES | other results
100 | 10 | COc1cc2c(N3CCN(C(=S)NCc4ccc(-c5ccccc5)nc4)CC3)c(C#N)cnc2cc1OCCCN1CCCCC1 | –
100 | 220 | COc1cc2c(N3CCN(C(=S)Nc4ccc(-c5ccccn5)cc4)CC3)ncnc2cc1OCCCN1CCCCC1 | –
50 | 140 | COc1cc2c(N3CCN(C(=S)NCc4cnc(C)cn4)CC3)ncnc2cc1OCCCN1CCCCC1 | IC50 [3]: > 30000 nM; IC50 [4]: 1520 nM; IC50 [5]: 1350 nM
2180 | 3420 | COc1cc2c(N3CCN(/C(=N\Cc4ccc(C(F)(F)F)nc4)NC#N)CC3)ncnc2cc1OCCCN1CCCCC1 | –
370 | 420 | COc1cc2c(N3CCN(/C(=N\c4ccc(-c5ccccn5)cc4)NC#N)CC3)ncnc2cc1OCCCN1CCCCC1 | –
130 | 240 | COc1cc2c(N3CCN(C(=S)Nc4ccncc4)CC3)c(C#N)cnc2cc1OCCCN1CCCCC1 | –
310 | 160 | COc1cc2c(N3CCN(/C(S)=N\Cc4ccco4)CC3)ncnc2cc1OCCN1CCCC1 | IC50 [3]: > 30000 nM; IC50 [4]: 1800 nM; IC50 [5]: 290 nM
2450 | 13400 | COc1cc2c(N3CCN(C(=S)NCc4ccncc4)CC3)ncnc2cc1OCCCN1CCCCC1 | –
1490 | 2130 | COc1cc2c(N3CCN(C(=S)NCc4ccc(-c5ccccn5)cc4)CC3)ncnc2cc1OCCN1CCCCC1 | –
450 | 630 | COc1cc2c(N3CCN(C(=S)NCc4csc(C)n4)CC3)ncnc2cc1OCCCN1CCCCC1 | –
230 | 1360 | COc1cc2c(N3CCN(C(=S)NCc4cnc(C)cn4)CC3)ncnc2cc1OCCN1CCOCC1 | –
130 | 20 | COc1cc2c(N3CCN(/C(S)=N\Cc4ccc(-c5ccccc5)nc4)CC3)ncnc2cc1OCCCN1CCCCC1 | –
430 | 800 | COc1cc2c(N3CCN(/C(S)=N\c4ccc(-c5cccc[n+]5[O-])cc4)CC3)ncnc2cc1OCCN1CCCCC1 | –
710 | 2110 | COc1cc2c(N3CCN(/C(S)=N\Cc4cccnc4)CC3)ncnc2cc1OCCN1CCCCC1 | –
80 | 1010 | COc1cc2c(N3CCN(C(=S)NCc4ccc(Cl)nc4)CC3)ncnc2cc1OCCN1CCCCC1 | IC50 [3]: > 30000 nM; IC50 [4]: 70 nM; IC50 [5]: 50 nM
2370 | 10500 | COc1cc2c(N3CCN(/C(=N\Cc4cc(C)on4)NC#N)CC3)ncnc2cc1OCCCN1CCCCC1 | –
270 | 360 | COc1cc2c(N3CCN(C(=S)Nc4ccc(-c5ccccc5)nc4)CC3)ncnc2cc1OCCCN1CCCCC1 | IC50 [3]: 5550 nM; IC50 [4]: 190 nM; IC50 [5]: 100 nM
120 | 5 | COc1cc2c(N3CCN(/C(S)=N\c4ccc(C#N)cc4)CC3)c(C#N)cnc2cc1OCCCN1CCCCC1 | –
5040 | 2000 | COc1cc2c(N3CCN(/C(S)=N\c4nccs4)CC3)ncnc2cc1OCCN1CCCCC1 | –

IC50 [1] [nM] | IC50 [2] [nM] | SMILES | other results
590 | 320 | COc1cc2c(N3CCN(/C(=N\Cc4ccc5c(c4)OCO5)NC#N)CC3)ncnc2cc1OCCCN1CCCCC1 | –
1790 | 1540 | COc1cc2c(N3CCN(/C(S)=N\c4ccnc(C#N)c4)CC3)ncnc2cc1OCCN1CCCCC1 | –
130 | 220 | COc1cc2c(N3CCN(/C(S)=N\c4ccc(-c5ccccn5)cc4)CC3)c(C#N)cnc2cc1OCCCN1CCCCC1 | –
540 | 180 | COc1cc2c(N3CCN(/C(S)=N\c4ccc(Br)cc4)CC3)ncnc2cc1OCCN1CCOCC1 | –
2930 | 5810 | COc1cc2c(N3CCN(C(=S)NCc4ccc(N)nc4)CC3)ncnc2cc1OCCN1CCCCC1 | –
390 | 1010 | COc1cc2c(N3CCN(/C(S)=N\c4ccc(Br)cc4)CC3)ncnc2cc1OCCN1CCCCC1 | –
260 | 100 | COc1cc2c(N3CCN(/C(S)=N\Cc4ccc5c(c4)OCO5)CC3)ncnc2cc1OCCN1CCOCC1 | –
50 | 5 | COc1cc2c(N3CCN(/C(S)=N\Cc4ccc(C(F)(F)F)nc4)CC3)ncnc2cc1OCCCN1CCOCC1 | –
60 | 30 | COc1cc2c(N3CCN(C(=S)NCc4ccc(C(F)(F)F)nc4)CC3)ncnc2cc1OCCCN1CCCCC1 | –
4470 | 3090 | COc1cc2c(N3CCN(C(=S)NCc4csc(-c5ccc(C(F)(F)F)cc5)n4)CC3)ncnc2cc1OCCCN1CCCCC1 | –
280 | 150 | COc1cc2c(N3CCN(/C(S)=N\c4ccc(-c5ccccc5)nc4)CC3)c(C#N)cnc2cc1OCCCN1CCCCC1 | –
3590 | 12100 | COc1cc2c(N3CCN(C(=S)NCc4ccncc4)CC3)ncnc2cc1OCCN1CCCCC1 | –
– | 4090 | COc1cc2c(N3CCN(/C(S)=N\Cc4ccccn4)CC3)ncnc2cc1OCCN1CCCCC1 | –
550 | 1980 | COc1cc2c(N3CCN(C(=S)Nc4ccc(-c5ccccc5)cn4)CC3)ncnc2cc1OCCCN1CCCCC1 | –
1550 | 800 | COc1cc2c(N3CCN(C(=NC#N)Nc4ccc(C(C)(C)C)cc4)CC3)ncnc2cc1OCCCN1CCCCC1 | –
10 | 3 | COc1cc2c(N3CCN(/C(S)=N\Cc4ccc(C(F)(F)F)nc4)CC3)c(C#N)cnc2cc1OCCCN1CCCCC1 | IC50 [3]: 40 nM; IC50 [4]: 20 nM; IC50 [5]: 10 nM
470 | 350 | COc1cc2c(N3CCN(C(=S)Nc4ccc(Br)cc4)CC3)ncnc2cc1OCCN1CCCC1 | –
60 | 20 | COc1cc2c(N3CCN(C(=S)NCc4ccc(Cl)nc4)CC3)ncnc2cc1OCCCN1CCCCC1 | –
400 | 240 | COc1cc2c(N3CCN(/C(S)=N\c4ccncc4)CC3)ncnc2cc1OCCN1CCCCC1 | IC50 [3]: > 30000 nM; IC50 [4]: 2970 nM; IC50 [5]: 980 nM

From ChEMBL document CHEMBL1137869 (Bioorg Med Chem Lett, 2004)
